For one experiment, the system named is HCC1954. Kind of experiment: Cytotoxicity, HER2 high-expressing cancer cells. The format is cell-based, human.
Another experiment deals with SK-BR-3. Kind of experiment: Cytotoxicity, HER2 high-expressing cancer cells. Format: cell-based, human.
The next experiment relates to BT-474. The experiment is described as follows: Cytotoxicity, HER2 high-expressing cancer cells. Format: cell-based.
The test system of the next experiment is NCI-N87. Kind of experiment: Cytotoxicity, HER2 high-expressing cancer cells. The format is cell-based, human.
The next experiment has as its system MDA-MB-231. Kind of experiment: Cytotoxicity, HER2 low-expressing or HER2-negative cells. The format is cell-based. Conditions: Homo sapiens. As to the method:
(§1) Cytotoxicity experiments were performed using human breast cancer cells MDA-MB-231, MDA-MB-468, which are HER2 low-expressing or HER2-negative.

The next experiment deals with MDA-MB-468. Described as above. Format: cell-based. Conditions: Homo sapiens. As to the method: as §1

What is called IC50 is the concentration at which inhibition is half-maximal. Low readings indicate inhibition by little substance, high ones a need for much substance.

Like-named read-outs stand apart in the source and are kept apart here. Non-standard residues stand in square brackets, D forms with d. Residues, ends and D or L forms follow the SMILES beside them. *: point of attachment. Dolaproine = CO[C@@H]([C@@H]1CCCN1)[C@@H](C)C(=O)O; Hexanoyl(6-maleimido) = O=C1C=CC(=O)N1CCCCCC(=O)*; Dil = CC[C@H](C)[C@H](NC)[C@@H](CC(=O)O)OC; NMeV = CN[C@H](C(=O)O)C(C)C

Take `COc1cc2cc(c1Cl)N(C)C(=O)C[C@H](OC(=O)[C@H](C)N(C)C(=O)CCS)[C@]1(C)O[C@H]1[C@H](C)[C@@H]1C[C@@](O)(NC(=O)O1)[C@H](OC)/C=C/C=C(\C)C2` [DM1]: the IC50 in the experiment with HCC1954 turned out to be 2.67 nM; in the experiment with SK-BR-3 it was 1.92 nM; in the experiment on BT-474, 6.24 nM; in the experiment on NCI-N87, 6.97 nM.

Consider `CC[C@H](C)[C@@H]([C@@H](CC(=O)N1CCC[C@H]1[C@H](OC)[C@@H](C)C(=O)N[C@@H](Cc1ccccc1)C(=O)O)OC)N(C)C(=O)[C@H](NC(=O)[C@H](C(C)C)N(C)C(=O)CCCCCN1C(=O)CC(SCC(NC(=O)CCOCCOCCOCCOCCNC(=O)CNC(=O)CNC(=O)CN)C(N)=O)C1=O)C(C)C` (stereo partly drawn) [IM102 (ring closed)], for which the IC50 is 160 nM in the experiment on HCC1954 (Homo sapiens, HCC1954); 383 nM in the experiment on SK-BR-3 (Homo sapiens, SK-BR-3); 267 nM in the experiment with BT-474 (Homo sapiens, BT-474); 690 nM with NCI-N87 (Homo sapiens, NCI-N87); 1710 nM in the experiment with MDA-MB-231; 1080 nM with MDA-MB-468.

With `CC[C@H](C)[C@@H]([C@@H](CC(=O)N1CCC[C@H]1[C@H](OC)[C@@H](C)C(=O)N[C@@H](Cc1ccccc1)C(=O)O)OC)N(C)C(=O)[C@@H](NC(=O)[C@@H](NC)C(C)C)C(C)C` [MMAF, monomethyl auristatin F] (H-[NMeV]V[Dil][Dolaproine]F-OH), the IC50 with HCC1954 was determined as 39.6 nM; with SK-BR-3, 54.3 nM; in the experiment with BT-474, 44.7 nM; in the experiment with NCI-N87, 41.4 nM.

As for `CC[C@H](C)[C@@H]([C@@H](CC(=O)N1CCC[C@H]1[C@H](OC)[C@@H](C)C(=O)N[C@@H](Cc1ccccc1)C(=O)O)OC)N(C)C(=O)[C@@H](NC(=O)[C@H](C(C)C)N(C)C(=O)CCCCCN1C(=O)C=CC1=O)C(C)C` [mc-MMAF] ({Hexanoyl(6-maleimido)}-[NMeV]V[Dil][Dolaproine]F-OH), the IC50 with HCC1954 was 116 nM; in the experiment with SK-BR-3, 98.6 nM; in the experiment with BT-474 it was 56.1 nM; with NCI-N87, 208 nM.

Values taken from US20230256108A1, “A DRUG CONJUGATE AND APPLICATIONS THEREOF” (GENEQUANTUM HEALTHCARE (SUZHOU) CO., LTD., priority 2019, published 2023).
